Assay results published in patent publication US4684748A, “Anticonvulsant agents” (Eli Lilly and Company, priority 1985, dated 1987).
Structures can show the parent of a compound that is named as a salt.

Test system: seizures
Test: not given
Settings: man; cited from earlier work
For O=C1NC(=O)C(c2ccccc2)(c2ccccc2)N1 [phenytoin], the “plasma level at which seizures are controlled” value is listed as 10 µg/mL.

Test system: tonic extensor seizures elicited by maximal electroshock
Test: electroshock induced convulsion inhibition assay (E.S.)
Type: in vivo, Cox standard strain albino male mice
Settings: Mus musculus; oral dose (gavage), mice, 0.1 second 50 milliampere corneal electroshock; at the time after dosing providing an optimal response
Text: The compounds of Formula I are anticonvulsant agents with a high therpeutic ratio and long half-life and are therefore useful in the treatment and prevention of convulsions in mammals. […] The compounds are effective against tonic extensor seizures elicited by maximal electroshock and should therefore be useful for treating generalized tonic-clonic ("grand mal"), cortical focal, complex partial (temporal lobe epilepsy), simple partial (focal moor), and post-traumatic seizures in humans. […] In the electroshock induced convulsion inhibition assay (E.S.), the compound to be tested was suspended in acacia and administered by gavage to each of ten Cox standard strain albino male mice (18-24 g) at the dose level being investigated. […] The animals were examined and evaluated immediately after the electroshock for the occurrence of clonic, flexor tonic, or extensor tonic convulsions, or death and the ED50 was determined for each compound as the dose which inhibited the occurrence of extensor tonic convulsions in one half of the animals immediately after the electroshock. For comparison, 18 milliamperes was usually sufficient to produce extensor tonic convulsions in about half of the control animals; at 50 milliamperes, almost all control animals (receiving vehicle only) […]. The test results summarized in Table I are reported as the ED50 values at the time interval found to provide an optimal response after dosing.
With Cc1cc(C(=O)NCc2ccccc2)cc(C)c1N [Example 17, 4-Amino-3,5-dimethyl-N-benzylbenzamide] the ED50 was 75 mg/kg. In the case of Cc1cc(C(=O)NC(C)c2ccccc2)cc(C)c1N (racemic) [Example 22, (R,S)-4-amino-3,5-dimethyl-N-(1-phenylethyl)benzamide], the ED50 is reported as 26.7 mg/kg. For Cc1cc(C(=O)Nc2c(C)cccc2C)ccc1N [Example 14, 4-Amino-N-(2,6-dimethylphenyl)-3-methylbenzamide], the ED50 was 3.8 mg/kg. Cc1cc(C(=O)N[C@@H](C)c2ccccc2)cc(C)c1N [Example 21, (S)-4-amino-3,5-dimethyl-N-(1-phenylethyl)benzamide] showed an ED50 of 60.5 mg/kg. With Cc1cc(C(=O)Nc2c(C)cccc2C)cc(C)c1N [Example 15, 4-Amino-N-(2,6-dimethylphenyl)-3,5-dimethylbenzamide] the ED50 was 5.6 mg/kg. Work on Cc1cc(C(=O)NCc2ccccc2)ccc1N.Cl [Example 19, 4-Amino-3-methyl-N-benzylbenzamide hydrochloride] yielded an ED50 of 9.6 mg/kg. Compound Cc1cc(C(=O)Nc2ccccc2C)ccc1N [Example 16, 4-Amino-3-methyl-N-(2-methylphenyl)benzamide] has an ED50 of 5.4 mg/kg. Cc1cc(C(=O)N[C@H](C)c2ccccc2)cc(C)c1N [Example 20, (R)-4-amino-3,5-dimethyl-N-(1-phenylethyl)benzamide] showed an ED50 of 46.8 mg/kg. For Cc1ccccc1CNC(=O)c1cc(C)c(N)c(C)c1 [Example 13, 4-Amino-3,5-dimethyl-N-[(2-methylphenyl)methyl]benzamide], the ED50 was 20 mg/kg. With Cc1cc(C(=O)NCc2ccccc2C)ccc1N [Example 18, 4-Amino-3-methyl-N-(2-methylbenzyl)benzamide] the ED50 was 16.3 mg/kg. Cc1cc(C(=O)NC(C)c2ccccc2)ccc1N (racemic) [Example 12, (R,S)-4-amino-3-methyl-N-(1-phenylethyl)benzamide hydrochloride] gave an ED50 of 20 mg/kg.
